Source: PubChem BioAssay (NCI)
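Step 1: Grow cells in 96-well plates. Step 2: Expose to compound for 48 hours at 5 concentrations. Step 3: Interpolate endpoints linearly; if unreached, use highest concentration. At the TGI there is no net growth.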

Assays:
Assay in all cases: DTP human tumour cell line panel, 48 h
[1] = system: KM12 colon
[2] = system: MALME-3M melanoma
[3] = system: SF-268 CNS
[4] = system: HOP-62 NSCLC
[5] = system: U251 CNS
[6] = system: UO-31 renal
[7] = system: LOX IMVI melanoma
[8] = system: SN12C renal
[9] = system: SNB-19 CNS
[10] = system: UACC-257 melanoma
[11] = system: NCI-H226 lung
[12] = system: RXF 393 renal
[13] = system: OVCAR-8 ovarian
[14] = system: XF 498 CNS
[15] = system: A549 NSCLC
[16] = system: M14 melanoma
[17] = system: NCI-H460 lung
[18] = system: KM20L2 colon
[19] = system: TK-10 renal
[20] = system: SNB-78 CNS
[21] = system: COLO 205 colon
[22] = system: 786-0 renal
[23] = system: HOP-92 NSCLC
[24] = system: OVCAR-4 ovarian
[25] = system: SK-MEL-2 melanoma
[26] = system: M19-MEL melanoma
[27] = system: SNB-75 CNS
[28] = system: SR leukemia
[29] = system: CCRF-CEM leukemia
[30] = system: SF-539 CNS
[31] = system: IGROV1 ovarian
[32] = system: UACC-62 melanoma
[33] = system: HCT-116 colon
[34] = system: HL-60(TB) leukemia
[35] = system: HT29 colon
[36] = system: EKVX NSCLC
[37] = system: SK-MEL-28 melanoma
[38] = system: SK-OV-3 ovarian
[39] = system: SF-295 CNS
[40] = system: LXFL 529 NSCLC
[41] = system: SK-MEL-5 melanoma
[42] = system: OVCAR-3 ovarian
[43] = system: HCC-2998 colon
[44] = system: DMS 273 small cell lung
[45] = system: SW-620 colon
[46] = system: K-562 leukemia
[47] = system: DLD-1 colon
[48] = system: NCI-H23 lung
[49] = system: HCT-15 colon
[50] = system: ACHN renal
[51] = system: NCI-H522 lung
[52] = system: MOLT-4 leukemia
[53] = system: T-47D breast
[54] = system: MCF7 breast
[55] = system: MDA-MB-231 breast
[56] = system: OVCAR-5 ovarian
[57] = system: HS 578T breast
[58] = system: DU-145 prostate
[59] = system: CAKI-1 renal
[60] = system: RPMI-8226 leukemia
[61] = system: A498 renal
[62] = system: PC-3 prostate
[63] = system: BT-549 breast
[64] = system: MDA-N
[65] = system: MDA-MB-435
[66] = system: NCI/ADR-RES ovarian

Compound COC(=O)C(c1ccc(OC)cc1)N1C(=O)[C@@H](NC(=O)c2ccccc2)[C@H]1[C@@H](C)O (stereo not given in full) has a TGI [1] greater than 100 µM, a TGI [2] greater than 100 µM and a TGI [3] greater than 100 µM. For the same compound, the TGI [4] was greater than 100 µM, the TGI [5] was greater than 100 µM and the TGI [6] was greater than 100 µM. For the same compound, the TGI [7] was greater than 100 µM, the TGI [8] was greater than 100 µM and the TGI [9] was greater than 100 µM. For the same compound, the TGI [10] was greater than 100 µM, the TGI [11] was greater than 100 µM and the TGI [12] was greater than 100 µM. The TGI [13] was greater than 100 µM, the TGI [14] was greater than 100 µM and the TGI [15] was greater than 100 µM. It also gave a TGI [16] greater than 100 µM, a TGI [17] greater than 100 µM and a TGI [18] greater than 100 µM. It also gave a TGI [19] greater than 100 µM, a TGI [20] greater than 100 µM and a TGI [21] greater than 100 µM. For the same compound, the TGI [22] was greater than 100 µM, the TGI [23] was greater than 100 µM and the TGI [24] was greater than 100 µM. It also gave a TGI [25] greater than 100 µM, a TGI [26] greater than 100 µM and a TGI [27] greater than 100 µM. It also gave a TGI [28] greater than 100 µM, a TGI [29] greater than 100 µM and a TGI [30] greater than 100 µM. For the same compound, the TGI [31] was greater than 100 µM, the TGI [32] was greater than 100 µM and the TGI [33] was greater than 100 µM. For the same compound, the TGI [34] was greater than 100 µM, the TGI [35] was greater than 100 µM and the TGI [36] was greater than 100 µM. For the same compound, the TGI [37] was greater than 100 µM, the TGI [38] was greater than 100 µM and the TGI [39] was greater than 100 µM. The TGI [40] was greater than 100 µM, the TGI [41] was greater than 100 µM and the TGI [42] was greater than 100 µM. For the same compound, the TGI [43] was greater than 100 µM, the TGI [44] was greater than 100 µM and the TGI [45] was greater than 100 µM. The TGI [46] was greater than 100 µM, the TGI [47] was greater than 100 µM and the TGI [48] was greater than 100 µM. For the same compound, the TGI [49] was greater than 100 µM, the TGI [50] was greater than 100 µM and the TGI [51] was greater than 100 µM. The TGI [52] was greater than 100 µM.

NC(=O)CCSC(CC(=O)c1ccc(Cl)cc1)c1ccc(Cl)cc1 (stereo not given) gave a TGI [1] of 19.6 µM, a TGI [2] of 66.8 µM and a TGI [3] of 82.1 µM. It also gave a TGI [53] of 57.3 µM, a TGI [4] of 93.1 µM and a TGI [5] of 34.5 µM. The TGI [6] was greater than 100 µM, the TGI [7] was 25.5 µM and the TGI [54] was 47.4 µM. The TGI [8] was 83.2 µM, the TGI [55] was greater than 100 µM and the TGI [9] was greater than 100 µM. It also gave a TGI [10] greater than 100 µM, a TGI [11] greater than 100 µM and a TGI [56] greater than 100 µM. For the same compound, the TGI [57] was greater than 100 µM, the TGI [58] was 85.4 µM and the TGI [12] was 32.6 µM. The TGI [13] was 32.3 µM, the TGI [15] was greater than 100 µM and the TGI [59] was 42.6 µM. For the same compound, the TGI [16] was 83.3 µM, the TGI [17] was greater than 100 µM and the TGI [19] was greater than 100 µM. It also gave a TGI [21] greater than 100 µM, a TGI [22] greater than 100 µM and a TGI [23] of 45.5 µM. The TGI [24] was 45.2 µM, the TGI [25] was 69.2 µM and the TGI [27] was 90.7 µM. The TGI [28] was 22.9 µM, the TGI [29] was 8.11 µM and the TGI [60] was 5.71 µM. For the same compound, the TGI [30] was 39.4 µM, the TGI [31] was 34.8 µM and the TGI [32] was 56 µM. For the same compound, the TGI [33] was 70.4 µM, the TGI [34] was 25.6 µM and the TGI [61] was 97.8 µM. It also gave a TGI [35] greater than 100 µM, a TGI [62] greater than 100 µM and a TGI [63] of 80 µM. It also gave a TGI [64] of 59.8 µM, a TGI [36] of 93.7 µM and a TGI [37] greater than 100 µM. It also gave a TGI [38] greater than 100 µM, a TGI [39] of 78.1 µM and a TGI [41] of 42.9 µM. For the same compound, the TGI [42] was 40.6 µM, the TGI [43] was 32.7 µM and the TGI [45] was 12.2 µM. For the same compound, the TGI [65] was 39.9 µM, the TGI [46] was greater than 100 µM and the TGI [48] was greater than 100 µM. It also gave a TGI [49] of 31.5 µM, a TGI [50] greater than 100 µM and a TGI [51] of 80.3 µM. For the same compound, the TGI [66] was 52.5 µM and the TGI [52] was 35.8 µM.

COc1cc(CNc2c3ccccc3nc3ccccc23)cc(OC)c1OC gave a TGI [1] of 21.3 µM, a TGI [2] of 12.5 µM and a TGI [3] of 16.5 µM. The TGI [53] was 41.9 µM, the TGI [4] was 11.7 µM and the TGI [5] was 19.5 µM. It also gave a TGI [6] of 11.5 µM, a TGI [7] of 6.75 µM and a TGI [54] greater than 32.9 µM. For the same compound, the TGI [8] was 15.3 µM, the TGI [55] was 23.6 µM and the TGI [9] was 24.3 µM. It also gave a TGI [10] of 11.2 µM, a TGI [11] of 10.3 µM and a TGI [56] of 14.6 µM. It also gave a TGI [57] of 29.8 µM, a TGI [58] greater than 52.1 µM and a TGI [12] of 9.04 µM. It also gave a TGI [13] of 14 µM, a TGI [15] of 12.7 µM and a TGI [59] of 14.1 µM. For the same compound, the TGI [16] was 8.76 µM, the TGI [17] was 8.18 µM and the TGI [19] was 37.5 µM. It also gave a TGI [21] of 7.14 µM, a TGI [22] of 14.3 µM and a TGI [23] of 16.7 µM. It also gave a TGI [24] of 20.3 µM, a TGI [25] of 5.66 µM and a TGI [27] of 13.9 µM. For the same compound, the TGI [28] was 7.58 µM, the TGI [29] was greater than 23.2 µM and the TGI [60] was greater than 27.3 µM. It also gave a TGI [30] of 15.7 µM, a TGI [31] of 25.2 µM and a TGI [32] of 7.74 µM. It also gave a TGI [33] of 11.2 µM, a TGI [34] greater than 21.3 µM and a TGI [61] of 7.71 µM. It also gave a TGI [35] of 14.3 µM, a TGI [62] of 11.9 µM and a TGI [63] of 16.2 µM. The TGI [64] was 13 µM, the TGI [36] was 21.4 µM and the TGI [37] was 20.2 µM. It also gave a TGI [38] of 28.4 µM, a TGI [39] of 14.4 µM and a TGI [41] of 7.83 µM. The TGI [42] was 30.2 µM, the TGI [43] was 11.9 µM and the TGI [45] was 10.1 µM. It also gave a TGI [65] of 12.9 µM, a TGI [46] of 2 µM and a TGI [48] of 18.5 µM. The TGI [49] was 14 µM, the TGI [50] was 14.4 µM and the TGI [51] was 11.6 µM. It also gave a TGI [66] of 14.2 µM and a TGI [52] greater than 22 µM.
